As a reminder, the IC50 is the concentration that inhibits the measured activity by half.

The target in the assay is T1, Tyrosinase (Agaricus bisporus, UniProt O42713).
T1 sequence (O42713 whole entry): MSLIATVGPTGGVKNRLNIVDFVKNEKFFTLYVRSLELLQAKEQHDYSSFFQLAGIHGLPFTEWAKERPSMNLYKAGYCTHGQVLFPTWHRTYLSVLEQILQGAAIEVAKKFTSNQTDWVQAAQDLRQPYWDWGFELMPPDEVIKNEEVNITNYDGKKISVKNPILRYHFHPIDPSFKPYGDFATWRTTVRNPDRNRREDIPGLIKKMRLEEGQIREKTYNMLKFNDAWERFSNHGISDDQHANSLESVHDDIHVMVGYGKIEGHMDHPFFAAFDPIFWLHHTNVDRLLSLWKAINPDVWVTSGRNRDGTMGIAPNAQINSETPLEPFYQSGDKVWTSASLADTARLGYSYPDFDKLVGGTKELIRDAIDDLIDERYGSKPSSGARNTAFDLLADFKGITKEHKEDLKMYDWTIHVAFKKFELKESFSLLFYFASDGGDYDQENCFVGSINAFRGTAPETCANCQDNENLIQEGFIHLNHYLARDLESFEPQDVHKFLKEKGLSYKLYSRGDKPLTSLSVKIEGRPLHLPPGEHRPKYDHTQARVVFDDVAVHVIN
Description: Inhibition of mushroom tyrosinase using L-tyrosine as substrate measured after 30 mins
Take `CCCCCCCCC(=O)N/C(=C\c1ccc(O)cc1)C(=O)O`: 250 µM corresponded to half-maximal inhibition (IC50).
For `O=C(O)/C(=C/c1ccc(O)cc1)NC(=O)c1ccccc1`, it took 180 µM to reach half-maximal inhibition (IC50).
For the compound `CC(=O)N/C(=C\c1ccc(O)cc1)C(=O)O`, half-maximal inhibition (IC50) required 65 µM.
